Source: ChEMBL document CHEMBL1125989, “Preparation and evaluation of optically active 4,4-difluorothreonine as a potent novel antitumor material” (Bioorg Med Chem Lett, 1991)
In brackets after ≈: the same amount, converted by molar mass.

Key:
L1210 [1] = experiment: Tested for the effect of stereochemistry on the growth of L1210 mouse leukemia cell line in vitro; assay type: functional, cell-based
L1210 [2] = experiment: Concentration at 50 percent inhibition of cell growth against mouse leukemia 1210 cell line in vitro; assay type: functional, cell-based
CCRF-CEM = experiment: Concentration at 50 percent inhibition of cell growth against human leukemia CCRF CEM cell line in vitro; assay type: functional, cell-based
PC10 [3] = experiment: Concentration at 50 percent inhibition of cell growth against human cancer PC10 cell line in vitro; assay type: functional, cell-based
KB = experiment: Concentration at 50 percent inhibition of cell growth against human cancer KB cell line in vitro; assay type: functional, cell-based
Mus musculus [4] = experiment: Tested for body weight of CDF1 mice bearing P388 leukemia at dose of 100 mg/kg/day on day 1; assay type: functional
Mus musculus [5] = experiment: Tested for body weight of CDF1 mice bearing P388 leukemia at dose of 250 mg/kg/day on day 5; assay type: functional
Mus musculus [6] = experiment: Tested for body weight of CDF1 mice bearing P388 leukemia at dose of 20 mg/kg/day on day 5; assay type: functional
Mus musculus [7] = experiment: Tested for body weight of CDF1 mice bearing P388 leukemia at dose of 20 mg/kg/day on day 1; assay type: functional
Mus musculus [8] = experiment: Tested for mean survival time of tested group to that of mean survival time of control group of mice bearing P388 leukemia at dose of 100 mg/kg/day; assay type: functional
Mus musculus [9] = experiment: Tested for mean survival time of tested group to that of mean survival time of control group of mice bearing P388 leukemia at dose of 250 mg/kg/day; assay type: functional
Mus musculus [10] = experiment: Tested for body weight of CDF1 mice bearing P388 leukemia at dose of 250 mg/kg/day on day 1; assay type: functional
Mus musculus [11] = experiment: Tested for mean survival time of tested group to that of mean survival time of control group of mice bearing P388 leukemia at dose of 20 mg/kg/day; assay type: functional
Mus musculus [12] = experiment: Tested for body weight of CDF1 mice bearing P388 leukemia at dose of 100 mg/kg/day on day 5; assay type: functional
PC10 [13] = experiment: Concentration at 50 percent inhibition of cell growth against human […] cell line in vitro; assay type: functional, cell-based

C[C@@H](O)[C@@H](N)C(=O)O [D-allothreonine]
IC50 (L1210 [1]): > 100 µg/mL

O=c1[nH]cc(F)c(=O)[nH]1 [FLUOROURACIL]
IC50 (L1210 [2]): 0.36 µg/mL (≈ 2.77 µM)
IC50 (CCRF-CEM): 0.95 µg/mL (≈ 7.3 µM)
IC50 (PC10 [3]): 42 µg/mL (≈ 323 µM)
IC50 (KB): 12.1 µg/mL (≈ 93 µM)

C[C@H](O)[C@H](N)C(=O)O
Body weight (Mus musculus [4]): 21.3 g
Body weight (Mus musculus [5]): 22 g
Body weight (Mus musculus [6]): 22 g
Body weight (Mus musculus [7]): 22 g
T/C (Mus musculus [8]): 122%
T/C (Mus musculus [9]): 170%
Body weight (Mus musculus [10]): 22.7 g
T/C (Mus musculus [11]): 114%
Body weight (Mus musculus [12]): 21.7 g
IC50 (L1210 [1]): 2.8 µg/mL (≈ 23.5 µM)

NC(C(=O)O)C(O)C(F)F (racemic)
IC50 (L1210 [2]): 1.1 µg/mL (≈ 7.09 µM)
IC50 (CCRF-CEM): 1.7 µg/mL (≈ 11 µM)
IC50 (PC10 [13]): 5.1 µg/mL (≈ 32.9 µM)
IC50 (KB): 2.7 µg/mL (≈ 17.4 µM)
IC50 (L1210 [1]): 3.3 µg/mL (≈ 21.3 µM)
